{"source": "patent US20170144969A1", "about": "“ANT[…], METHOD FOR PRODUCTION AND USES THEREOF” (priority 2014, published 2017)", "key": {"[1]": {"test_system": "MRSA (ATCC 33591)", "experiment": "Minimum Inhibitory Concentration, micro-dilution broth", "assay_type": "cell-based, methicillin-resistant S. aureus", "details": "24 h, 37° C."}, "[2]": {"test_system": "E. coli (MTCC 443)", "experiment": "Minimum Inhibitory Concentration, micro-dilution broth", "assay_type": "cell-based", "details": "24 h, 37° C."}, "[3]": {"experiment": "Antibacterial efficacy (MIC) after incubation in 50% human plasma", "details": "for MIC / activity: up to 24 h incubation in 50% human plasma"}, "[4]": {"test_system": "human Red Blood Cells", "experiment": "Haemolytic activity", "details": "Table 3; human RBCs, 1 h at 37° C."}, "[5]": {"test_system": "Klebsiella pneumoniae (ATCC 700603)", "experiment": "Minimum Inhibitory Concentration, micro-dilution broth", "assay_type": "cell-based", "details": "24 h, 37° C."}, "[6]": {"test_system": "vancomycin resistant Enterococcus faecium (VRE) (ATCC 51559)", "experiment": "Minimum Inhibitory Concentration, micro-dilution broth", "assay_type": "cell-based", "details": "24 h, 37° C."}, "[7]": {"test_system": "Ebola virus (strain ME718)", "assay_type": "cell-based"}, "[8]": {"test_system": "E. coli", "experiment": "Resistance study, serial passage at MIC/2", "assay_type": "cell-based", "details": "30 passages"}, "[9]": {"test_system": "Ebola virus", "assay_type": "cell-based"}, "[10]": {"test_system": "Ebola virus", "assay_type": "cell-based", "remark": "listed apart in the source"}, "[11]": {"test_system": "RAW (macrophage) cell line", "experiment": "Cytotoxicity, MTT assay"}, "[12]": {"test_system": "HeLa cell line", "experiment": "Cytotoxicity, MTT assay"}, "[13]": {"test_system": "Ebola virus (strain ME718)", "assay_type": "cell-based", "remark": "listed apart in the source"}, "[14]": {"test_system": "S. aureus", "experiment": "Resistance study, serial passage at MIC/2", "assay_type": "cell-based", "details": "20 passages"}, "[15]": {"test_system": "stationary-phase S. aureus", "experiment": "Time-kill kinetics against stationary phase bacteria", "assay_type": "cell-based", "details": "within 1 h of exposure, 50 μg/mL"}, "[16]": {"test_system": "Ebola virus", "assay_type": "cell-based", "remark": "listed apart in the source"}, "[17]": {"test_system": "S. aureus biofilms", "experiment": "Bacterial biofilm disruption (pre-formed biofilm)", "assay_type": "cell-based", "details": "for reduction of cell viability in pre-existing biofilms: 24 h"}, "[18]": {"test_system": "S. aureus (MTCC 737)", "experiment": "Minimum Inhibitory Concentration, micro-dilution broth", "assay_type": "cell-based, Staphylococcus aureus", "details": "24 h, 37° C."}, "[19]": {"test_system": "Enterococcus faecium (ATCC 19634)", "experiment": "Minimum Inhibitory Concentration, micro-dilution broth", "assay_type": "cell-based"}}, "note": "Values joined by “and” are separate entries in the source; they are usually repeats but may differ in a detail not shown here. Identical values can stand only once. Like-named read-outs stand apart in the source and are kept apart here.", "data": [{"compound": "CCCCCCCCCCCC(=O)N(CCCNC(=O)[C@@H](N)Cc1ccccc1)CCCNC(=O)[C@@H](N)Cc1ccccc1.O=C(O)C(F)(F)F.O=C(O)C(F)(F)F", "note": "[Compound 2, N,N-bis-[{3-(^LPhe)amino}propyl]dodecanamide bis(trifluoroacetate)]", "values": [{"measurement": "Minimum Inhibitory Concentration MRSA", "setting": "[1]", "value": 4, "unit": "µM"}, {"measurement": "MIC", "setting": "[2]", "value": 12, "unit": "µM"}, {"measurement": "MIC", "setting": "[3]; after 2 h incubation with 50% plasma", "value": 10.7, "unit": "µM"}, {"measurement": "MIC", "setting": "[3]; after 4 h incubation with 50% plasma", "value": 22, "unit": "µM"}, {"measurement": "MIC", "setting": "[3]; before incubation with 50% human plasma", "value": 5.4, "unit": "µM"}, {"measurement": "MIC / activity", "setting": "[3]", "value": "remained same"}, {"measurement": "HC50", "setting": "[4]", "value": 205}, {"measurement": "Minimum Inhibitory Concentration K. pneumonie", "setting": "[5]", "value": 9.7, "unit": "µM"}, {"measurement": "MIC", "setting": "[6]", "value": 2.7, "unit": "µM"}]}, {"compound": "CCCCCCCCCCCCCC(=O)N(CCCNC(=O)[C@H](N)CCCCN)CCCNC(=O)[C@H](N)CCCCN.O=C(O)C(F)(F)F.O=C(O)C(F)(F)F", "note": "[Compound 16, N,N-bis-[{3-(^DLys)amino}propyl]tetradecanamide bis(trifluoroacetate)]", "values": [{"measurement": "Ct value Ave", "setting": "[7]", "value": "34.3 and 32.9"}, {"measurement": "Drug - no drug Ct change", "setting": "[7]", "value": "7.02 and 5.64"}, {"measurement": "fold increase in the MIC", "setting": "[8]", "value": "no change in the MIC"}, {"measurement": "rank of Ct value among 20 compounds", "setting": "[9]", "value": "one of the top two Ct values"}, {"measurement": "Ct value, replicate wells 1-3", "setting": "[10]", "value": "25.96 and 27.13 and 26.42 and 26.03 and 24.81 and 25.73 and 26.99 and 26.76 and 26.30 and 26.31 and 26.49 and 26.53 and 26.04 and 26.63 and 16.70 and 18.76 and 16.93 and 24.42 and 24.33 and 24.32 and 21.29 and 20.72 and 23.10 and 19.95 and 20.87 and 20.22 and 17.82 and 20.49 and 19.45"}, {"measurement": "amount of viral genome present", "setting": "[10]", "value": "reduced the amount of viral genome present"}, {"measurement": "EC50 (50% cells viability)", "setting": "[11]; MTT", "value": "> 70", "unit": "µg/mL"}, {"measurement": "toxicity", "setting": "[11]; at its MIC", "value": "did not show any toxicity"}, {"measurement": "EC50 (50% cells viability)", "setting": "[12]; MTT", "value": "> 70", "unit": "µg/mL"}, {"measurement": "toxicity", "setting": "[12]; at its MIC", "value": "did not show any toxicity"}, {"measurement": "MIC", "setting": "[2]", "value": 5.4, "unit": "µM"}, {"measurement": "Ct value Ave", "setting": "[13]", "value": "33.65 and 35.29"}, {"measurement": "Drug - no drug Ct change", "setting": "[13]", "value": "3.76 and 5.40"}, {"measurement": "fold increase in the MIC", "setting": "[14]", "value": "no change in the MIC"}, {"measurement": "reductions in cell viability", "setting": "[15]", "value": "more than 3 Log CFU/mL"}, {"measurement": "rank of Ct value among 20 compounds", "setting": "[16]", "value": "one of the top two Ct values"}, {"measurement": "reduction of cell viability in pre-existing biofilms", "setting": "[17]; 4×MIC", "value": "5 Log (CFU/mL)"}, {"measurement": "biofilm eradication, confocal microscopy", "setting": "[17]; 10×MIC", "value": "significant biofilm eradication"}, {"measurement": "pre-formed biofilm mass, crystal violet staining", "setting": "[17]; 10×MIC", "value": "enormous reduction in pre-formed biofilm mass"}, {"measurement": "reduction of cell viability in pre-existing biofilms", "setting": "[17]; 10×MIC", "value": "6 Log (CFU/mL)"}, {"measurement": "reduction of cell viability in pre-existing biofilms", "setting": "[17]; at its MIC concentration", "value": "more than 4 Log CFU/mL"}, {"measurement": "MIC", "setting": "[6]", "value": 2.8, "unit": "µM"}, {"measurement": "MIC", "setting": "[18]", "value": 5.7, "unit": "µM"}]}, {"compound": "CCCCCCCCCCCC(=O)N(CCCNC(=O)[C@H](N)Cc1ccccc1)CCCNC(=O)[C@H](N)Cc1ccccc1", "note": "[Compound 6, N,N-bis-[{3-(^DPhe)amino}propyl]dodecanamide bis(trifluoroacetate)]", "values": [{"measurement": "MIC", "setting": "[2]; Escherichia coli, MTCC443", "value": 12, "unit": "µM"}, {"measurement": "stability in plasma", "setting": "[3]; human plasma", "value": "stable in plasma"}, {"measurement": "MIC / activity", "setting": "[3]", "value": "did not show any loss of activity"}, {"measurement": "MIC", "setting": "[6]", "value": 2.9, "unit": "µM"}, {"measurement": "MIC", "setting": "[19]; 24 h, 37° C., read-out: Minimum Inhibitory Concentration E. faceium", "value": 3.3, "unit": "µM"}, {"measurement": "MIC", "setting": "[19]; Enterococcus faecium, ATCC19634, 24 h, read-out: Minimum Inhibitory Concentration E. faceium, 24 h, 37° C.", "value": "2 to 5", "unit": "µM"}]}, {"compound": "CC(=O)NC[C@H]1CN(c2ccc(N3CCOCC3)c(F)c2)C(=O)O1", "note": "[linezolid, reference compound]", "values": [{"measurement": "reduction of cell viability in pre-existing biofilms", "setting": "[17]; 64×MIC", "value": "none of the antibiotics showed significant reduction"}]}, {"compound": "CCn1cc(C(=O)O)c(=O)c2cc(F)c(N3CCNCC3)cc21", "note": "[norfloxacin, reference compound]", "values": [{"measurement": "fold increase in the MIC", "setting": "[14]", "value": "around 800 fold"}, {"measurement": "reduction of cell viability in pre-existing biofilms", "setting": "[17]; 64×MIC", "value": "none of the antibiotics showed significant reduction"}]}, {"compound": "colistin [reference compound]", "values": [{"measurement": "fold increase in the MIC", "setting": "[8]", "value": "~250", "unit": "fold"}]}]}
